Here are results for two compounds from ChEMBL document CHEMBL4842381, “A Novel, Selective c-Abl Inhibitor, Compound 5, Prevents Neurodegeneration in Parkinson's Disease” (J Med Chem, 2021).

A short description of data set [1]: in vivo. As to conditions: ICR, mouse, plasma, po, 5 mg/kg.
The nature of data set [2]: in vivo. As to conditions: ICR, mouse, brain/plasma, po, 5 mg/kg.
Data set [3] is described as follows: in vivo. The following applies: ICR, mouse, plasma, po, 5 mg/kg. This is another data set of the same source.
A short description of data set [4]: in vivo. As to conditions: ICR, mouse, plasma, po, 5 mg/kg. This is another data set of the same source.
A short description of data set [5]: in vivo. As to conditions: ICR, mouse, plasma, po, 5 mg/kg. This is another data set of the same source.

Usually AUC(0-inf) stands for total exposure, with the tail of the curve extrapolated. Low values mean low exposure, high ones high exposure. One may read the half-life as the time in which the quantity being followed falls by half. The Cmax is the maximum level reached in the sampled fluid or tissue. As a reminder, the Tmax is the time from dosing to the highest level. On to `Cc1c(F)cncc1-c1ccc2nc(NC(=O)[C@@H]3C[C@@H]3F)sc2c1`, for which the AUC(0-inf) at 24 h in the data set “in vivo [1]” amounted to 25000 ng·h/mL. The compound further showed a Kp uu at 24 h in the data set “in vivo [2]” of 0.21. Further, the half-life at 24 h in “in vivo [3]” was 1.8 h. Also, the Cmax at 24 h in the data set “in vivo [4]” came out at 4260 ng/mL. In addition, the Tmax at 24 h in “in vivo [5]” stood at 1.2 h.

Take `Cc1cn(-c2cc(NC(=O)c3ccc(C)c(Nc4nccc(-c5cccnc5)n4)c3)cc(C(F)(F)F)c2)cn1` [NILOTINIB]: in the data set “in vivo [5]”, the Tmax at 24 h worked out at 1 h.
